Target: DNA-dependent protein kinase catalytic subunit (Homo sapiens, UniProt P78527)
Assay: Inhibition of DNA-PK (unknown origin)

Chain of DNA-dependent protein kinase catalytic subunit (P78527 whole entry): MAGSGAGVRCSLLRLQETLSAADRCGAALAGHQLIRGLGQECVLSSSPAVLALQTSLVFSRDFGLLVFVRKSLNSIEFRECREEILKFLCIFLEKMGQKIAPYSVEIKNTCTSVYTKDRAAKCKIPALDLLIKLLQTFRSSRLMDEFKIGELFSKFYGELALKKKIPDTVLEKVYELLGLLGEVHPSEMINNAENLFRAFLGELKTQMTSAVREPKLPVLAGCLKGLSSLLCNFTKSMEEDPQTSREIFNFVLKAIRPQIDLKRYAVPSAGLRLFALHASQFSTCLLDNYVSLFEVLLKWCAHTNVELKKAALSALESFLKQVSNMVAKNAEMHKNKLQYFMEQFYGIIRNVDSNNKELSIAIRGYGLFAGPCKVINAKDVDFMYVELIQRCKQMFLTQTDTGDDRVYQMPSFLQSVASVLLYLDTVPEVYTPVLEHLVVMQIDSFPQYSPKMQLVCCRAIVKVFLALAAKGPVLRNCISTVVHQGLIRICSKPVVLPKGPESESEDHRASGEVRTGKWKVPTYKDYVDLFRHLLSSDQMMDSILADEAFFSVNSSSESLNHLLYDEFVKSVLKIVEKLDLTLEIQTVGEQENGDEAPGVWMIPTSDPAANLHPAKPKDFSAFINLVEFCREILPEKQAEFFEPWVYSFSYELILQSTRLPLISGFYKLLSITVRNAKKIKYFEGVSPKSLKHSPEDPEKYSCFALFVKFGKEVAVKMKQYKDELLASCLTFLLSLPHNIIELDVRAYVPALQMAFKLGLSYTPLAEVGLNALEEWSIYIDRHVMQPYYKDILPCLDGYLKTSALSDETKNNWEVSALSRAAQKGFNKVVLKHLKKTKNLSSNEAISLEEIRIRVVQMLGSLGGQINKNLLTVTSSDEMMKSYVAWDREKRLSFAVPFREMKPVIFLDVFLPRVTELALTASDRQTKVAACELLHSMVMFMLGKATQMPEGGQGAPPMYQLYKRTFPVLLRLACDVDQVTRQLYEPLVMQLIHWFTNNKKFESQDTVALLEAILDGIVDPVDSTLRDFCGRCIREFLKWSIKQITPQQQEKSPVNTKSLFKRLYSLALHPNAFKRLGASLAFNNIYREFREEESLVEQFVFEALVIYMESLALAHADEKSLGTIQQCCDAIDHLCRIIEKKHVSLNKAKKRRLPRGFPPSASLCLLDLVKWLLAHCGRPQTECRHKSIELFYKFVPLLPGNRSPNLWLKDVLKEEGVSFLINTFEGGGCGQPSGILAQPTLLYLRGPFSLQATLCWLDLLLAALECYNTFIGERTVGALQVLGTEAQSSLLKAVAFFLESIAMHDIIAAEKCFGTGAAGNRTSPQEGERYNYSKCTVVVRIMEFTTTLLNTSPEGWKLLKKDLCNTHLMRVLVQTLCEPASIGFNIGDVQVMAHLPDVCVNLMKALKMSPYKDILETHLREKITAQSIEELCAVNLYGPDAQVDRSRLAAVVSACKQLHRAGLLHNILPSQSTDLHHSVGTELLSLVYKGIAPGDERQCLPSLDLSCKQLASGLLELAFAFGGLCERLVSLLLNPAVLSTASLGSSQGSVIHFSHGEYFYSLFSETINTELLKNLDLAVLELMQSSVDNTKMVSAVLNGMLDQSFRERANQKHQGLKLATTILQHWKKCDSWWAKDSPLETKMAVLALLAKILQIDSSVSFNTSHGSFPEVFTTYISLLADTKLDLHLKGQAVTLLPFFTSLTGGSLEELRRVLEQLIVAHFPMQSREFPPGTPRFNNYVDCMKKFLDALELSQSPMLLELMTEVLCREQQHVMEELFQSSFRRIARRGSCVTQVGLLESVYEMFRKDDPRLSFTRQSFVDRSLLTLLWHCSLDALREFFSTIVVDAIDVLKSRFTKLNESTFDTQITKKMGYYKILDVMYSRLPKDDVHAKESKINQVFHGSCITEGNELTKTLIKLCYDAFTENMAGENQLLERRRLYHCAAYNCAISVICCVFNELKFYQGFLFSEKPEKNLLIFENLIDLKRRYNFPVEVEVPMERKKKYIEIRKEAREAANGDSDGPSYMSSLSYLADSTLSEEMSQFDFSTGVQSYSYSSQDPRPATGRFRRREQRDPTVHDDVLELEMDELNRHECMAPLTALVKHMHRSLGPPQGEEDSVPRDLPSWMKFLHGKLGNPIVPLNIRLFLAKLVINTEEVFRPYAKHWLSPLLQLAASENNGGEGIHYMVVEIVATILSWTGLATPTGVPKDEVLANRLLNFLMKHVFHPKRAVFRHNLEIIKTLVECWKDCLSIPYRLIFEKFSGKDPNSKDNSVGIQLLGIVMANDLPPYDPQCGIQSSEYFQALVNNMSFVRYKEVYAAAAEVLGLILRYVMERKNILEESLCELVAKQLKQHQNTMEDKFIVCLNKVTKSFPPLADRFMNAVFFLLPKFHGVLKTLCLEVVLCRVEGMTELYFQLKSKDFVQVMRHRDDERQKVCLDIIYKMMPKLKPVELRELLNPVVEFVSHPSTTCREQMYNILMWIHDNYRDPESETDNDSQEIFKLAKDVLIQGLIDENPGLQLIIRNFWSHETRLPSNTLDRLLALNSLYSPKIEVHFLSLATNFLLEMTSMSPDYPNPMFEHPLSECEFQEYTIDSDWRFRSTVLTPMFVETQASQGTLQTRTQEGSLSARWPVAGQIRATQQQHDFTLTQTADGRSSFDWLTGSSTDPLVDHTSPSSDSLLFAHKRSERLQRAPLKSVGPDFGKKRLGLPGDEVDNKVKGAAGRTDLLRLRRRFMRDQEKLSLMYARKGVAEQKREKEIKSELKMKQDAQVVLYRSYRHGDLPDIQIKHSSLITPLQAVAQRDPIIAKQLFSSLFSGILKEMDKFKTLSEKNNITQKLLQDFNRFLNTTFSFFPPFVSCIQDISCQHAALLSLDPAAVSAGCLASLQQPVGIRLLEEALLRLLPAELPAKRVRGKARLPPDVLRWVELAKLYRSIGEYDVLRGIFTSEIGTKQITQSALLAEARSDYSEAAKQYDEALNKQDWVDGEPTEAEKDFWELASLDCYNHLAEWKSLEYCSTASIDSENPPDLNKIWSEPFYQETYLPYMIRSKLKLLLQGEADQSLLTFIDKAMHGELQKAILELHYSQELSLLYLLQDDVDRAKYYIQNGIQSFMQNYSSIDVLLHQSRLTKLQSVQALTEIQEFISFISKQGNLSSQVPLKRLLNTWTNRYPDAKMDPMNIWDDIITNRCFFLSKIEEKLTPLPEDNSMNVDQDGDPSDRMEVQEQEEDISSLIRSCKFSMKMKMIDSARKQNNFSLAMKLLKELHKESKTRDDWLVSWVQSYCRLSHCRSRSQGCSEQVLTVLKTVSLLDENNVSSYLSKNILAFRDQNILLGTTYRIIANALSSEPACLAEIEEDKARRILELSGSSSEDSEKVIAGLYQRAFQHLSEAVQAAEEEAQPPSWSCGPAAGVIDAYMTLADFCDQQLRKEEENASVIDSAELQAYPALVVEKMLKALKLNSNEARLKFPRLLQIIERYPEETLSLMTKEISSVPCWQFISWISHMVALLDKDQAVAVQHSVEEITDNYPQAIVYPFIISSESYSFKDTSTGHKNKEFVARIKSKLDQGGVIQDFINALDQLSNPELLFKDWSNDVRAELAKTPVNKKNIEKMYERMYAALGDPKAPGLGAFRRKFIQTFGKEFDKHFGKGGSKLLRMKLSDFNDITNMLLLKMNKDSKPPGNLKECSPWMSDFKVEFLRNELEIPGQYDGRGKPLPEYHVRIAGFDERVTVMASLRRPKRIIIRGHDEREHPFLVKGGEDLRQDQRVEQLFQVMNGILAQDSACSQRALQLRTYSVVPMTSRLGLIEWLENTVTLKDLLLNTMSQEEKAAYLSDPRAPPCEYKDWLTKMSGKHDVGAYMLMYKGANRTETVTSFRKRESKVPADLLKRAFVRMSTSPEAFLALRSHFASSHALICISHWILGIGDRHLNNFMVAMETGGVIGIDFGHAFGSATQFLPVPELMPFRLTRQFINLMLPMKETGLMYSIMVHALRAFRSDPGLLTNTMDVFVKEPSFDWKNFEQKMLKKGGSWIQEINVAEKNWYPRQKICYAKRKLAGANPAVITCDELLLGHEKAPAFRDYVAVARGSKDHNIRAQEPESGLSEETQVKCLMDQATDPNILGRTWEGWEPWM

IC50: 2.51 µM
Compound: COc1ncc(-c2cc3c(c(NC(=O)CN4CCOCC4)c2)COC3)cc1NS(C)(=O)=O
